Test results reported in ChEMBL document CHEMBL3227967, “Quantitative structure-activity relationships in 1-aryl-2-(alkylamino)ethanol antimalarials” (J Med Chem, 1979).

tested on: Plasmodium berghei; test: Antimalarial activity against Plasmodium berghei; assay type: functional

SMILES | log(1/C)
CCCCN(CCCC)CC(O)c1cc(-c2ccc(Cl)cc2)nc2cc(OC)c(Cl)cc12 (centres undefined) | 2.76
OC(CC1CCCCN1)c1cc(-c2ccccc2)nc2ccccc12 (centres undefined) | 2.37
Cc1ccc2c(C(O)CC3CCCCN3)cc3ccccc3c2c1 (centres undefined) | 2.83
CCN(CC)CC(O)c1cc(Cl)cc2ccc(-c3ccc(Cl)cc3)nc12 (centres undefined) | 2.12
CCCCCCN(CCCCCC)CC(O)c1cc2ccc(Br)cc2c2cc(Br)ccc12 (centres undefined) | 3.51
CCCCN(CCCC)CC(O)c1cc2ccncc2c2c(Cl)cc(Cl)cc12 (centres undefined) | 2.57
CCCCCCCN(CCCCCCC)CC(O)c1cccc2c1cc(Cl)c1cc(Cl)c(Cl)cc12 (centres undefined) | 2.71
CCCCCCCN(CCCCCCC)CC(O)c1cc2c(Cl)cc(Cl)cc2c2cc(C)sc12 (centres undefined) | 3.48
OC(CC1CCCCN1)c1cc2cc(C(F)(F)F)cc(C(F)(F)F)c2c2cc(Cl)ccc12 (centres undefined) | 4.72
OC(CC1CCCCN1)c1cc2ccc(C(F)(F)F)cc2c2cc(C(F)(F)F)ccc12 (centres undefined) | 3.99
CCCCN(CCCC)CC(O)c1cc(-c2ccc(Cl)cc2)nc2ccccc12 (centres undefined) | 2.73
CCCCN(CCCC)CC(O)c1cc2cc(Cl)ccc2c2ccccc12 (centres undefined) | 3.01
OC(CC1CCCCN1)c1cc2cc(Cl)ccc2c2ccc(C(F)(F)F)cc12 (centres undefined) | 3.25
Cc1ccc2nc(Nc3ccc(Cl)cc3)cc(C(O)CC3CCCCN3)c2c1 (centres undefined) | 2.87
C=C[C@H]1CN2CC[C@H]1C[C@H]2[C@H](O)c1ccnc2ccc(OC)cc12.O=C(O)CCC(=O)O | 2.28
CCCCNC(C)(C)CC(O)c1cc(C(F)(F)F)nc2c(C(F)(F)F)cccc12 (centres undefined) | 3.27
CCCCCCN(CCCCCC)CC(O)c1cc(-c2cccc(C(F)(F)F)c2)nc2c(Cl)cc(Cl)cc12 (centres undefined) | 3.32
OC(CC1CCCCN1)c1cc2ccc(C(F)(F)F)cc2c2ccc(Cl)cc12 (centres undefined) | 4.12
OC(CC1CCCCN1)c1cc(Nc2ccc(Cl)cc2)nc2ccc(Cl)cc12 (centres undefined) | 2.72
CCCCN(CCCC)CC(O)c1cc2ccsc2c2ccccc12 (centres undefined) | 2.38
CCCC[N+]([O-])(CCCC)CC(O)c1cc(-c2ccc(Cl)cc2)nc(-c2ccc(Cl)cc2)c1 (centres undefined) | 3.57
CCCCCCN(CCCCCC)CC(O)c1cc(-c2ccc(OC)cc2)nc2cc(OC)c(Cl)cc12 (centres undefined) | 2.64
CCCCCCCN(CCCCCCC)CC(O)c1cc2cnccc2c2ccccc12 (centres undefined) | 2.47
OC(CN1CCCCC1)c1cc(-c2ccccc2)nc2c(Cl)cc(Cl)cc12 (centres undefined) | 3.17
CCCCCCCN(CCCCCCC)CC(O)c1cc2ccsc2c2cc(C(F)(F)F)ccc12 (centres undefined) | 2.77

SMILES | log(1/C)
CCCCCCCN(CCCCCCC)CCCC(O)c1cc2ccc(C(F)(F)F)cc2c2cc(C(F)(F)F)ccc12 (centres undefined) | 3.72
CCCCN(CCCC)CC(O)C1CC(c2ccc(Cl)c(Cl)c2)=Nc2c(Cl)cc(Cl)cc21 (centres undefined) | 3.6
CCCCN(CCCC)CC(O)c1cc(C(=O)c2ccc(C(F)(F)F)cc2)nc2c(Cl)cc(Cl)cc12 (centres undefined) | 4.86
CCCCCCCN(CCCCCCC)CC(O)c1cc2ccccc2c2cc(C(F)(F)F)ccc12 (centres undefined) | 3.56
CCCCN(CCCC)CC(O)c1cc(-c2ccc(C(F)(F)F)cc2)nc(-c2ccc(C(F)(F)F)cc2)c1.O=C(O)CCC(=O)O (centres undefined) | 4.23
CCCCN(CCCC)CC(O)c1cc(-c2ccc(Cl)cc2)cc2ccc(OC)cc12 (centres undefined) | 3.9
CCCCN(CCCC)CC(O)c1c2ccccc2c(Cl)c2ccccc12 (centres undefined) | 3.51
CCCCN(CCCC)CC(O)c1cc(C(=O)c2cccc(Cl)c2)nc2c(C(F)(F)F)cc(Cl)cc12 (centres undefined) | 3.98
OC(CC1CCCCN1)c1cc2cccc(C(F)(F)F)c2c2ccc(Cl)cc12 (centres undefined) | 3.66
CCCCN(CCCC)CC(O)c1cc(-c2ccc(Cl)c(Cl)c2)nc2cc(OC)ccc12 (centres undefined) | 3.21
OC(CC1CCCCN1)c1cc(Oc2ccc(Cl)cc2)nc2ccc(Cl)cc12 (centres undefined) | 3.23
OC(CC1CCCCN1)c1cc(C(F)(F)F)nc2c(F)cccc12 (centres undefined) | 2.36
OC(CC1CCCCN1)c1cc(-c2ccc(Cl)cc2)nc2c(C(F)(F)F)cccc12 (centres undefined) | 4.45
CCCCN(CCCC)CC(O)c1cc2cc(C(F)(F)F)ccc2c2ccccc12 (centres undefined) | 3.79
CCCCCCCCN(CCCCCCCC)CC(O)c1cc(-c2ccccc2)nc2cc(Cl)ccc12 (centres undefined) | 2.82
CCCCCCCN(CCCCCCC)CC(O)c1cc2c(Cl)cc(Cl)cc2c2ccsc12 (centres undefined) | 3
CCCCCCCN(CCCCCCC)CC(O)c1cc(-c2ccc(Cl)cc2)cc2ccccc12 (centres undefined) | 3.35
CCCCN(CCCC)CC(O)c1cc(C(=O)c2cccc(C(F)(F)F)c2)nc2c(C(F)(F)F)cc(Cl)cc12 (centres undefined) | 4.52
CCCCCN(CCCCC)CC(O)c1cc(-c2ccc(Cl)cc2)nc(-c2ccc(Cl)cc2)c1 (centres undefined) | 3.13
OC(CN1CCCCCC1)c1cc(-c2cccs2)nc2cccc(Br)c12 (centres undefined) | 2.89
CCCCN(CCCC)CC(O)c1cccc2c1cc(Br)c1ccccc12 (centres undefined) | 2.15
CCCCN(CCCC)CC(O)c1cccc2cc3cccc(Cl)c3cc12 (centres undefined) | 2.26
CCCCCCN(CCCCCC)CC(O)c1cc(-c2ccc(Cl)cc2)nc2c(C)cc(C)cc12 (centres undefined) | 3.75
CCCCN(CCCC)CC(O)c1cc(-c2cccc(C(F)(F)F)c2)nc2c(Cl)cc(Cl)cc12 (centres undefined) | 3.93
CCCCN(CCCC)CC(O)c1cc(C(C)(C)C)nc2ccc(Cl)cc12 (centres undefined) | 2.91

SMILES | log(1/C)
CCCCCCCN(CCCCCCC)CC(O)c1ccc2ccc3cccc(C(F)(F)F)c3c2c1 (centres undefined) | 2.58
CCCCN(CCCC)CC(O)c1cc2c(Cl)cc(Cl)cc2c2cnccc12 (centres undefined) | 2.94
CCCCCCN(CCCCCC)CC(O)c1cc(-c2ccc(Cl)cc2)nc2cc(Cl)c(OC)cc12 (centres undefined) | 3.07
CCCCN(CCCC)CC(O)c1cc2ccccc2c2c(Cl)cccc12 (centres undefined) | 2.77
OC(CC1CCCCN1)c1cc(-c2ccccc2)nc2c(C(F)(F)F)cccc12 (centres undefined) | 3.68
OC(CC1CCCCN1)c1cc2ccc(C(F)(F)F)cc2c2cc(Cl)c(Cl)cc12 (centres undefined) | 4.02
CCCCN(CCCC)CC(O)c1ccc(Cl)c2ncccc12 (centres undefined) | 2.16
OC(CC1CCCCN1)c1cc2cc(Cl)c(Cl)cc2c2cc(Cl)ccc12 (centres undefined) | 3.69
OC(CC1CCCN1)c1cc(-c2ccccc2)nc2ccccc12 (centres undefined) | 2.26
CCCCN(CCCC)CC(O)c1c2cccc(Cl)c2cc2c(Cl)cccc12 (centres undefined) | 2.76
CCCCN(CCCC)CC(O)c1cc2c(Cl)cc(Cl)cc2c2cc(Cl)sc12 (centres undefined) | 3.53
CCN(CC)CC(O)c1cc2c(Cl)cc(Cl)cc2c2cc(Cl)ccc12 (centres undefined) | 3.9
OC(CC1CCCCN1)c1cc2cc(C(F)(F)F)ccc2c2cc(C(F)(F)F)ccc12 (centres undefined) | 3.85
CCCCN(CCCC)CC(O)c1cc2cc(Br)ccc2c2cc(SC)ccc12 (centres undefined) | 3.04
CCCCN(CCCC)CC(O)c1cc(C(=O)c2cc(Cl)cc(Cl)c2)nc2c(C(F)(F)F)cc(Cl)cc12 (centres undefined) | 4.82
CCCCNCC(O)c1cc(-c2ccc(C(F)(F)F)cc2)nc(C(F)(F)F)c1 (centres undefined) | 4.08
CCN(CC)CC(O)c1cc2cc(Cl)ccc2c2cc(Cl)ccc12 (centres undefined) | 4.06
CCCN(CCC)CC(O)c1cc2cc(Br)ccc2c2cc(Br)ccc12 (centres undefined) | 4.27
Cc1cccc2c(C(O)CC3CCCCN3)cc(-c3ccccc3)nc12 (centres undefined) | 3.38
CCCCCCNCC(O)c1cc2ccc(C(F)(F)F)cc2c2cc(C(F)(F)F)ccc12 (centres undefined) | 3.78
CCCCCCCN(CCCCCCC)CC(O)c1cc2ccncc2c2ccccc12 (centres undefined) | 2.33
OC(C[N+]12CCC(CC1)CC2)c1cc(-c2ccc(Cl)cc2)nc(-c2ccc(Cl)cc2)c1 (centres undefined) | 3.21
CCCCCCCN(CCCCCCC)CC(O)c1c(OC)c2cc(Br)ccc2c2ccc(Br)cc12 (centres undefined) | 3.35
CCC(CC)NCC(O)c1cc(-c2ccc(C(F)(F)F)cc2)nc(C(F)(F)F)c1 (centres undefined) | 3.28
CCCCN(CCCC)CC(O)c1cc(Cc2ccccc2)nc2c(Cl)cc(Cl)cc12 (centres undefined) | 2.6

SMILES | log(1/C)
CCN(CC)CC(O)c1cc(-c2ccc(OC)c(OC)c2)nc2cc(Cl)ccc12 (centres undefined) | 2.81
CCCCN(CCCC)CC(O)c1cccc2cc3cc(Cl)c(Cl)cc3cc12 (centres undefined) | 2.48
CCCCCN(CCCCC)CC(O)c1cccc2c1ccc1ccccc12 (centres undefined) | 2.33
CCCN(CCC)CC(O)c1cc(C(F)(F)F)nc2c(C(F)(F)F)cccc12 (centres undefined) | 2.88
CNCC(O)c1cc2ccc(C(F)(F)F)cc2c2cc(C(F)(F)F)ccc12 (centres undefined) | 4.23
CCCCNCC(O)c1cc(-c2cccc(C(F)(F)F)c2)nc(C(F)(F)F)c1 (centres undefined) | 3.69
CCCCN(CCCC)CC(O)c1cc(-c2ccc(Cl)cc2)nc(-c2ccc(Cl)cc2)c1.O=C(O)CCC(=O)O (centres undefined) | 3.71
OC(CC1CCCCN1)c1cc(C(F)(F)F)nc2cc(C(F)(F)F)ccc12 (centres undefined) | 4.05
OC(CC1CCCCN1)c1cc2cc(Cl)c(Cl)cc2c2cc(C(F)(F)F)ccc12 (centres undefined) | 4.19
CCCCN(CCCC)CC(O)c1cc(-c2ccc(OC)cc2)nc2cc(Cl)c(OC)cc12 (centres undefined) | 3.32
CCCCNc1cc(C(O)CC2CCCCN2)c2ccccc2n1 (centres undefined) | 2.41
CCCCN(CCCC)CC(O)c1cc(-c2ccc(Cl)cc2)nc(-c2ccc(Br)cc2)c1 (centres undefined) | 3.36
CCCCN(CCCC)CC(O)c1cc2ccc(C(F)(F)F)cc2c2cc(C)sc12 (centres undefined) | 2.52
CCCCCCCCN(CCCCCCCC)CCC(O)c1cc2c(O)cccc2c2ccccc12 (centres undefined) | 2.65
CCCCN(CCCC)CC(O)c1cc(C23CC4CC(CC(C4)C2)C3)nc2c(C(F)(F)F)cccc12 (centres undefined) | 3.59
CCCCCN(CCCCC)CC(O)c1cc2ccc(C(F)(F)F)cc2c2ccsc12 (centres undefined) | 2.69
OC(CC1CCCCN1)c1cc2cc(Br)ccc2c2ccccc12 (centres undefined) | 3.25
Cc1ccc(Oc2cc(C(O)CC3CCCCN3)c3cc(C)ccc3n2)cc1 (centres undefined) | 2.35
CCCCN(CCCC)CC(O)c1cc2cc(Br)ccc2c2cc(C(F)(F)F)ccc12 (centres undefined) | 4.07
CCCCN(CCCC)CC(O)c1c(Cl)cc2ccc(-c3ccc(Cl)cc3)nc2c1Cl (centres undefined) | 3.02
OC(CC1CCCCN1)c1cc2cccc(C(F)(F)F)c2c2cc(C(F)(F)F)ccc12 (centres undefined) | 3.54
CCCCN(CCCC)CC(O)c1cc(C(=O)c2cc(C(F)(F)F)cc(C(F)(F)F)c2)nc2c(Cl)cc(Cl)cc12 (centres undefined) | 4.64
CCCCCCCN(CCCCCCC)CC(O)c1c2ccccc2cc2ccccc12 (centres undefined) | 3.07
CCCCN(CCCC)CC(O)c1cc(C2(C)CCCC2)nc2c(Cl)cc(Cl)cc12 (centres undefined) | 2.66
